Laboratory results reported in article PMC8850444, “The lipid components of high-density lipoproteins (HDL) are essential for the binding and transportation of antimicrobial peptides in human serum” (Scientific Reports, 2022).

Legend:
human albumin = conditions: cited from earlier work
[1] = tested on: Escherichia coli K-12 (MG1655); type: cell-based; conditions: for repression of antimicrobial activity by human serum: E. coli 10^6 cfu/ml, 5% human serum (v/v) compared with PBS, mean ± SD n = 3
Description: The Gram-negative bacteria Escherichia coli K-12 (MG1655) was cultured and plated in/on Luria–Bertani broth/agar plate (Merck Millipore, Darmstadt, Germany). The bacteria were grown overnight, washed, and diluted 1:2000 in phosphate buffered saline (PBS), pH 7.4. Bacteria (ca. 1 × 10^6 colony-forming units, cfu/ml) was mixed with antimicrobial peptides (AMP) in 100 µl PBS and incubated at 37 °C. Serial dilutions of each AMP-treated bacteria in the presence of human sera, proteins or lipids were prepared and plated for determination of remaining viable cells (expressed as cfu). At least three independent experiments were performed for each assay to determine the mean value with standard deviation (SD)[31].
For all in vitro antimicrobial assays, the average value with standard deviation (SD) was determined from at least three independent experiments. Mann–Whitney test and Kruskal–Wallis tests were performed to determine the significance. For lipid quantification, the average value with standard deviation (SD) was determined from at least three independent experiments and One-way ANOVA test was performed to determine the significance of the difference in the measured values. P < 0.05 was considered to be statistically significant.

human serum = assay: Band shift of AMPs in human serum on horizontal native PAGE; type: binding; conditions: AMP 4 µg in 10 µl diluted human serum, 5–40% (v/v), 8% horizontal native PAGE, Coomassie blue
Description: (§1) Various AMPs (4 µg each) were incubated with human serum, isolated components or lipid at the indicated concentrations at room temperature in 10 µl PC buffer (20 mM HEPES, pH7.4, 50 mM NaCl) for 30 min, subjected to horizontal native 8% polyacrylamide gel electrophoreses (PAGE), pH8.0/pH8.8, and stained with Coomassie Blue.

HDL = assay: Band shift of AMPs by HDL on horizontal native PAGE; type: binding, human; conditions: AMP 4 µg, agents 10 µg or lipids 4 µg in BSA, 8% horizontal native PAGE
Description: as §1

Compound: daptomycin
- fraction bound and inhibited by albumin (human albumin; human serum): 90–94%

Compound: Polymyxin B
- repression of antimicrobial activity by human serum [1]: not at all observed
- band shift of AMP in human serum (human serum): not shifted

Compound: Pleurocidin: antimicrobial peptide from Pleuronectes amertcanus (GWGSFFKKAAHVGKHVGKAALTHYL)
- repression of antimicrobial activity by human serum [1]: not at all observed
- fold increase of LC99 in 5% human serum over PBS ([1]; E. coli, LC99 in 5% human serum versus PBS): one
- bactericidal activity in presence of purified S50, E5, Apo-AI, PC, SM, CO and HDL ([1]; E. coli, NRC12 16 mg/L, Pleurocidin 8 mg/L): resistant
- band shift by purified S50, E5, Apo-AI, PC, SM, CO and HDL (HDL): resistant
- band shift of AMP in human serum (human serum): not shifted

Compound: CC(=O)CC(c1ccccc1)c1c(O)c2ccccc2oc1=O (centres unmarked) [warfarin]
- fraction bound to human albumin (human albumin; human albumin drug binding site I (warfarin) and site II (ibuprofen)): more than 90%

Compound: CC[C@H](C)[C@H](NC(=O)[C@H](CCCCN)NC(=O)[C@H](CCC(=O)O)NC(=O)[C@H](CCCCN)NC(=O)[C@H](CO)NC(=O)[C@H](CCCCN)NC(=O)[C@H](CCCNC(=N)N)NC(=O)[C@H](Cc1ccccc1)NC(=O)[C@H](Cc1ccccc1)NC(=O)[C@H](CC(=O)O)NC(=O)CNC(=O)[C@H](CC(C)C)NC(=O)[C@@H](N)CC(C)C)C(=O)NCC(=O)N[C@@H](CCCCN)C(=O)N[C@@H](CCC(=O)O)C(=O)N[C@@H](Cc1ccccc1)C(=O)N[C@@H](CCCCN)C(=O)N[C@@H](CCCNC(=N)N)C(=O)N[C@H](C(=O)N[C@H](C(=O)N[C@@H](CCC(N)=O)C(=O)N[C@@H](CCCNC(=N)N)C(=O)N[C@H](C(=O)N[C@@H](CCCCN)C(=O)N[C@@H](CC(=O)O)C(=O)N[C@@H](Cc1ccccc1)C(=O)N[C@@H](CC(C)C)C(=O)N[C@@H](CCCNC(=N)N)C(=O)N[C@@H](CC(N)=O)C(=O)N[C@@H](CC(C)C)C(=O)N[C@H](C(=O)N1CCC[C@H]1C(=O)N[C@@H](CCCNC(=N)N)C(=O)N[C@H](C(=O)N[C@@H](CCC(=O)O)C(=O)N[C@@H](CO)C(=O)O)[C@@H](C)O)C(C)C)[C@@H](C)CC)C(C)C)[C@@H](C)CC [LL37]
- LC99 in 5% human serum ([1]; E. coli, cfu counting, 5% human serum, LC99 = lowest AMP concentration that kills 99% of the original inoculum, 37 °C): > 512 mg/L
- LC99 in PBS ([1]; E. coli, cfu counting, PBS pH 7.4, LC99 = lowest AMP concentration that kills 99% of the original inoculum, 37 °C): 16 mg/L
